These results are taken from patent US5519115A, “Reverse antimicrobial peptides” (priority 1993, dated 1996).

The test system of the data set is isolated chloroplasts. The experiment in a line: Oxygen evolution bioassay, phytotoxicity (isolated chloroplasts). Format: cell-based, Spinach (Spinacia oleracea L. var. Melody). The method, then:
The following procedure for the preparation of chloroplasts to use in an oxygen electrode is similar to that of Gupta et al., "Development and Use of Chlorotetracycline Fluorescence as a Measurement Assay of Chloroplast Envelope-Bound Mg^2+, "Plant Physiol. 89, (1989) 753-761. Spinach (Spinacia oleracea L. var. `Melody`) was grown in 1:1 peat/vermiculite potting mix in a growth chamber with a 10 hour light period. The chamber temperature was maintained at 21° C. (day) and 16° C. (night) during the growth period. All plants were used for chloroplast isolation after 6-8 weeks of growth.
In order to obtain an enriched chloroplast fraction, about 12 g of deribbed spinach leaves were thoroughly washed and surface dried. The leaves were then cut into small pieces, each about 1/2 inch square, and were placed in a small blender jar containing 50 mL of chilled homogenization medium (0.33M sorbitol, 50 mM Hepes-NaOH, pH 6.8, 2mM Na2 EDTA, 1 mM MnCl2, 1 mM MgCl2). The tissue was blended twice for three second intervals on high speed in a blender. The resulting homogenate was filtered through four layers of cheesecloth and two layers of miracloth (Behring Diagnostics, La Jolla, Calif.) into two chilled 30 mL glass centrifuge tubes. The filtered solution was centrifuged for 1.0 minute at 750 g (2,200 RPM) in a JS 13.1 swinging bucket rotor in a Beckman J2-21M centrifuge (Beckman Instruments, Inc., Somerset, N.J.). The supernatant was then decanted and the pellet was gently resuspended by swirling at 0° C. About 15 mL of homogenization medium was added to each tube of chloroplasts before the chloroplasts were layered onto a 40% Percoll gradient (6 mL Percoll, 9 mL homogenization medium, and 0.03 g bovine serum albumin) in a 30 mL glass centrifuge tube. These tubes were centrifuged for 4.0 minutes at 2500 g (4000 RPM) in a JS 13.1 swinging bucket rotor in a Beckman J2-21M centrifuge. The supernatant was removed and the resulting pellet was resuspended in a small amount of homogenization medium (about 500 microliters).
Plastid concentration was generally expressed on a chlorophyll basis. Chlorophyll was determined by the method of Arnon "Copper Enzymes in Isolated Chloroplasts, Polyphenol Oxidase in Beta Vulgaris," Plant Physiol. 24, (1949) 1-15. About 50 microliters of chloroplast stock suspension was added to 10 mL of 80% acetone and this solution was incubated 5.0 minutes in the dark and then centrifuged for 5.0 minutes at 500 g (1630 RPM) in a Beckman GP centrifuge. The absorbance of the acetone-chloroplast solution was monitored at 645 nm, at 663 nm and at 730 nm. The chlorophyll concentration was then calculated as 10× [(absorbance at 645 nm×20.2)+(absorbance at 663 nm×8.02)--background at 730 nm]. This gave the amount of chlorophyll in micrograms for the original 50 microliters of chloroplasts. The concentration of chloroplasts was then adjusted with homogenization medium so that 50 microliters of suspension contained 26 micrograms of chlorophyll. These chloroplasts were only active for 11/2 to 2 hours and were therefore used immediately.
An oxygen electrode (Hansatech Instruments Ltd., Kings Lynn, Norfolk, England) was used to measure oxygen evolution from isolated chloroplasts. For a detailed discussion of the method see, D. Walker, "The Use of the Oxygen Electrode and Fluorescence Probes in Simple Measurements of Photosynthesis," supra. A saturated KCl solution was placed in the electrode well and a one-inch square of rolling paper or lens paper was placed in to the electrode well so that it soaked up KCl and formed an ionic bridge. A one-inch square of teflon membrane was then prepared, being careful not to touch its surface, and was placed over the soaked paper. Using the membrane applicator, an O ring was placed over the head of the electrode, thereby securing paper and membrane across the electrode. The CB-1D control box was turned on and the system was allowed to warm up approximately one hour before calibration. […]

Take “Met-Mag 1 dimer (head-to-tail) [Peptide No. 9]”: the “inhibition of oxygen evolution” value is 100%.
